According to patent publication US20260297060A1, “COMPOUNDS FOR THE DEGRADATION OF MUTANT BRAF” (C4 THERAPEUTICS, INC., priority 2023, published 2026):
Where two headings read alike, the source gives them in different places.

Experiments:
[1] = Pharmacokinetics in female BALB/c nude mice bearing A375 xenografts, 1 day dosing (PK and PD study): plasma, tumor and brain concentrations, AUC; format: in vivo; conditions: 100 mg/kg p.o. QD × 1 day; for Mean Concentration in Brain ± SEM / Mean Concentration in Plasma ± SEM: BQL: below the lower limit of quantitation
Text: The concentrations of Dabrafenib, Compound 26 and Compound 141 in the treatment of female BALB/c nude mice bearing A375 xenografts are shown in Table 62-Table 72 and FIG. 52-FIG. 73.

[2] = Example 7 pharmacokinetics assay for efficacy study (plasma, liver); format: in vivo, BALB/c nude mice; conditions: mouse, po, 100 mg/kg, p.o., QD × 14 days
Description: For efficacy study, agents were tested in the A375 human melanoma xenografts. Compound 118, Compound 156, and Compound 180 were administered to BALB/c nude mice bearing A375 xenografts from day 0 and dosed p.o. twice per day (BID). Compound 141 was administered from day 0 and dosed p.o. twice per day (BID) or dosed p.o. daily (QD) from day 1. Compound 141, Compound 118, Compound 156, and Compound 180 were dosed at 10 mg/kg for 14 days. The known BRAF inhibitor Dabrafenib was used as a positive control. Dabrafenib was administered from day 1 and dosed p.o. daily (QD) for 14 days and dosed at 100 mg/kg.
The plasma samples were collected at predetermined time points for PK analysis. The mice were euthanized at predetermined time points post the treatment. The blood samples were collected into the 1.5 mL Eppendorf tubes containing 15 μL of 0.5 M EDTA-K2. And then the anticoagulant blood samples were centrifuged at 2,500 g at 4° C. for 15 minutes. The plasma samples were separated into 2 aliquots. The 1st was used for PK analysis, and the 2nd served as backup. The samples were stored at −80° C. before bioanalysis.
Liver samples were collected at predetermined time points for PK analysis. The left lobe of the liver was dissected out and split into 2 parts. The 1st part was used for PK analysis and the 2nd part served as the backup for the study. The samples were transferred into pre-labeled tubes and quickly froze in liquid nitrogen within 2 minutes after dissection. The samples were stored at −80° C. before bioanalysis.
The harvested plasma and liver samples were processed for pharmacokinetics analysis by LC-MS/MS with a concentration range of 0.500~500 ng/mL for Dabrafenib in plasma and liver homogenate, 20.0~20,000 ng/mL for Compound 141, Compound 180 and Compound 118 in plasma and liver, 10.0~10,000 ng/mL for Compound 156 in plasma and liver.

[3] = mouse, brain, po, 100 mg/kg, read-out: Mean Concentration in Brain ± SEM
[4] = mouse, plasma, po, 100 mg/kg, read-out: Mean Concentration in Plasma ± SEM
[5] = mouse, tumor, po, 100 mg/kg, read-out: Mean Concentration in Tumor ± SEM

Mean Concentration in Brain ± SEM ([1]; 10 h): BQL^a | Mean Concentration in Brain ± SEM ([1]; 24 h): BQL | Mean Concentration in Plasma ± SEM ([1]; 36 h): BQL | Mean Concentration in Plasma ± SEM ([1]; 48 h): BQL | concentration at 1 h [1, 3]: 1040 ± 349 ng/g | concentration at 4 h [1, 3]: 6.13 ng/g | concentration at 48 h ([1]; mouse, brain, po, 100 mg/kg, 48 h, read-out: Mean Concentration in Brain ± SEM): 15.2 ng/g | AUC at 24 h ([1]; mouse, brain, po, read-out: Brain AUC at 24 hours, Average): 1580 ng·h/mL | concentration at 0.25 h ([1]; mouse, plasma, po, 100 mg/kg, 0.25 h, read-out: Mean Concentration in Plasma ± SEM): 62200 ± 10900 ng/mL | concentration at 0.5 h ([1]; mouse, plasma, po, 100 mg/kg, 0.5 h, read-out: Mean Concentration in Plasma ± SEM): 44700 ± 11600 ng/mL | concentration at 1 h [1, 4]: 7490 ± 1360 ng/mL | concentration at 2 h ([1]; mouse, plasma, po, 100 mg/kg, 2 h, read-out: Mean Concentration in Plasma ± SEM): 844 ± 198 ng/mL | concentration at 4 h [1, 4]: 110 ± 37.6 ng/mL | concentration at 8 h ([1]; mouse, plasma, po, 100 mg/kg, 8 h, read-out: Mean Concentration in Plasma ± SEM): 55.6 ± 15.5 ng/mL | concentration at 10 h ([1]; mouse, plasma, po, 100 mg/kg, 10 h, read-out: Mean Concentration in Plasma ± SEM): 25.9 ± 2.09 ng/mL | concentration at 24 h ([1]; mouse, plasma, po, 100 mg/kg, 24 h, read-out: Mean Concentration in Plasma ± SEM): 0.616 ng/mL | AUC at 24 h ([1]; mouse, plasma, po, read-out: Plasma AUC at 24 hours, Average): 32100 ng·h/mL | concentration at 1 h [1, 5]: 8660 ± 4660 ng/g | concentration at 4 h [1, 5]: 442 ± 257 ng/g | concentration at 10 h ([1]; mouse, tumor, po, 100 mg/kg, 10 h, read-out: Mean Concentration in Tumor ± SEM): 18 ± 1.88 ng/g | concentration at 24 h ([1]; mouse, tumor, po, 100 mg/kg, 24 h, read-out: Mean Concentration in Tumor ± SEM): 253 ng/g | concentration at 48 h ([1]; mouse, tumor, po, 100 mg/kg, 48 h, read-out: Mean Concentration in Tumor ± SEM): 4.66 ng/g | AUC at 24 h ([1]; mouse, tumor, po, read-out: Tumor AUC at 24 hours, Average): 1680 ng·h/mL | concentration at 6 h ([2]; liver, read-out: Concentration in Liver (mean ± SEM)): 195 ± 32.1 ng/g | concentration at 6 h ([2]; plasma, read-out: Concentration in Plasma (mean ± SEM)): 80.5 ± 17.3 ng/mL
SMILES: CC(C)(C)c1nc(-c2cccc(NS(=O)(=O)c3c(F)cccc3F)c2F)c(-c2ccnc(N)n2)s1 [Dabrafenib, dabrafenib, reference compound]
